Experimental data taken from patent publication US20230158034A1, “CO-TREATMENT WITH CDK4/6 AND CDK2 INHIBITORS TO SUPPRESS TUMOR ADAPTATION TO CDK2 INHIBITORS” (Pfizer Inc., priority 2020, published 2023).

Columns and labels:
[1] = system: Rb, Nucleolin, Cdc6 and Nbs1 phosphorylation; test: Immunofluorescence and western blotting of endogenous CDK2 substrates; format: cell-based, human; settings: 10 μM 3 MB-PP1 for 1 hr, RPE-hTERT CDK2^F80G/F80G cells
Protocol: Cells were fixed for 15 minutes with freshly prepared 4% paraformaldehyde, washed twice with PBS, and incubated with a blocking buffer (3% BSA in PBS) for 1 hr at room temperature. Permeabilization was carried out using 0.2% Triton-X 100 for 15 min at 4° C. Primary antibody was diluted in blocking buffer and incubated with cells overnight at 4° C. followed by three washes with 1×PBS. Secondary antibodies conjugated to Alexa Fluor 488, Alexa Fluor 546 or Alexa Fluor 647 were incubated for 1 hr followed by three washes with 1×PBS. DNA was stained using Hoechst 33342 dye for 10 minutes at 1:10000 (ThermoFisher H3570). Images were acquired on a Nikon Eclipse Ti or Ti2 microscope with a 10×0.45 NA objective. DNA content was determined by taking the integrated intensity of each cell's Hoechst signal. Cells were delineated as 3-4N DNA content by plotting a histogram of DNA content and drawing a threshold and the end of the 2N peak.
Lysates were prepared using 1×LDS sample buffer (ThermoFisher NP007) using equal numbers of cells. Proteins were separated using NuPAGE precast polyacrylamide gels (ThermoFisher NP0301). Total protein was quantified using Azure Red Dye (Azure Biosystems AC2124) and was used to normalize the signal from antibodies of interest. Primary antibodies used are specified under the “Antibodies” section. HRP-conjugated or IR700 and IR800 labeled fluorescent secondary antibodies were used for visualization (Cell Signaling Technology 7074 and 7076).

[2] = system: CDK2 activity (DHB sensor phosphorylation); test: DHB-based CDK2 activity sensor, single-cell time-lapse imaging (C/N ratio); design: species or system human
Text: (§1) The DHB sensor is localized to the nucleus when it is not phosphorylated. Upon phosphorylation, the nuclear localization signal is masked, the nuclear export signal is unmasked, and the sensor steadily translocates to the cytoplasm in response to increasing CDK2 activity (FIG. 1A). Thus, kinase activity can be quantified by the ratio of the cytoplasmic to nuclear fluorescence intensity (C/N ratio) of the DHB sensor. […] Asynchronously cycling cells were first imaged for approximately 20 hr in the absence of drug to establish the cell-cycle phase of each cell; the movie was then paused to add drug, and then imaging was continued for another 1-2 days. Because the cells were cycling asynchronously, all cell-cycle phases with one drug treatment were sampled. This allowed the present inventors to computationally isolate traces for cells that received drug at any time since the completion of anaphase.
(§2) Cells were seeded at least 24 hr prior to imaging in phenol-red-free full-growth medium in glass-bottom 96-well plates (CellVis P96-1.5H-N) that were coated with collagen prior to seeding. The seeding density was chosen such that the cells would remain sub-confluent until the end of the imaging period. Cells were first imaged for 16-20 hr in full-growth media without drug. The movie was then briefly paused and the full-growth media was replaced with full-growth media containing drug at the desired concentration. The plate was then re-inserted into the microscope and aligned to its prior position and imaging was continued for an additional 24-48 hr. Images were acquired every 12 min (for MCF10A or RPE-hTERT) or every 20 min (for MCF7 or OVCAR3) on a Nikon Eclipse Ti or Ti2 microscope with a 10×0.45 NA objective in a humidified, 37° C. chamber at 5% CO2. Exposure times for all movies for all channels were kept under 500 ms per timepoint to minimize phototoxicity. Cell tracking was performed using published MATLAB scripts (Cappell et al., 2016), as described previously (Arora et al., 2017). The tracking code is available for download at https://github.com/scappell/Cell_tracking. Cell counts over time were obtained by counting the number of segmented nuclei in each frame of the movie.
Asynchronously cycling cells that divided and received drug treatments during the imaging period were initially segmented into categories based on the cells' time of anaphase relative to the time of drug addition. These cells were then additionally subcategorized based on their DHB cytoplasmic/nuclear (C/N) ratio after the mitotic event. C/N ratio was calculated by quantifying the ratio of cytoplasmic to nuclear mean DHB fluorescence, with the cytoplasmic component calculated as the mean of the top 50th percentile of a ring of pixels outside of the nuclear mask.
Cells were classified as CDK2^inc if the DHB C/N ratio was above 0.5 units 3 hr after anaphase, otherwise they were classified as CDK2^low. Figure legends indicate whether only CDK2^inc cells or whether all cells are plotted. The median of the single-cell traces in a subcategory was then used to create median trace with 95% confidence interval representative of the particular subcategory. All cell trace analysis was done using custom MATLAB scripts and code is available upon request.

[3] = system: MCF10A, RPE-hTERT, MCF7 and OVCAR3 cells; test: Cell-cycle progression, mitosis and proliferation by time-lapse imaging; format: cell-based, human; settings: 1 μM palbociclib (after the upcoming mitosis) or 9 μM RO3306 (toward end of cell cycle), MCF10A
Text: as §1, §2

Row | SMILES | Nbs1 phosphorylation [1] | DHB sensor phosphorylation ([2]; 10 μM 3 MB-PP1, RPE-hTERT CDK2^F80G/F80G cells) | DHB sensor phosphorylation ([2]; 10 μM 3 MB-PP1, wild-type RPE-hTERT cells) | cell-cycle arrest [3] | DHB phosphorylation in RPE-hTERT CDK2^F80G/F80G cells as compared to wild-type RPE-hTERT cells ([2]; 9 μM RO3306) | effect on DHB sensor phosphorylation ([2]; 9 μM RO3306, MCF10A)
1 | Cc1cccc(Cc2nn(C(C)(C)C)c3ncnc(N)c23)c1 [3 MB-PP1, 1-(tert-butyl)-3-(3-methylbenzyl)-1H-pyrazolo[3,4-d]pyrimidin-4-amine] | loss of Nbs1 phosphorylation | reduction in DHB sensor phosphorylation that quickly rebounded | not affected |  |  | 
2 | O=C1NC(=NCc2cccs2)S/C1=C\c1ccc2ncccc2c1 [RO3306] |  |  |  | G2 arrest | much greater drop in DHB phosphorylation | minimal immediate effect
